Data reported in BigSolDB 2.1.

c1ccc2c(c1)Cc1ccccc1-2
solubility (mole fraction)
Conditions | in acetone | in benzene | in chloroform | in isobutanol | in n-propanol | in toluene
283 K | 0.0445 | 0.0883 | 0.0893 | 0.00425 | 0.00817 | 0.063
288 K | 0.049 | 0.0982 | 0.102 | 0.00544 | 0.00903 | 0.0809
293 K | 0.0558 | 0.109 | 0.114 | 0.00691 | 0.0115 | 0.0967
298 K | 0.0687 | 0.126 | 0.132 | – | – | 0.124
298.4 K | – | – | – | 0.00902 | 0.0134 | –
303 K | – | – | – | – | – | 0.152
303.1 K | 0.0793 | – | 0.153 | – | – | –
303.2 K | – | 0.143 | – | 0.0121 | 0.0163 | –
308 K | – | 0.158 | – | 0.0156 | 0.0188 | 0.195
308.2 K | 0.0907 | – | 0.173 | – | – | –
313 K | 0.104 | 0.183 | 0.195 | 0.0192 | 0.0215 | 0.25
318 K | 0.12 | 0.209 | 0.22 | 0.023 | 0.0248 | 0.3
323 K | 0.14 | 0.235 | 0.25 | 0.0267 | 0.0289 | 0.37
